Test results: US20070298108A1, “Pharmaceutical Formulation” (priority 2004, published 2007)

Key:
[1] = Vial study: influence of humidity in a closed container on binary mixtures of losartan potassium form X; type: physicochemical
Procedure: Storage conditions: Vial study—influence of humidity in a closed container (simulation of packaging)
Testing mixtures are put into vials, exposed to 60% humidity for 18 hours, then closed with rubber stoppers and stored in a thermostatically controlled chamber at temperature of 25° C. (±2° C.) and 60% (±5%) relative humidity.
(§1) Mixtures are tested for up to 5 days in open petri dishes and up to 4 and 9 days in vials, and the following parameters were analysed at intervals of a few days or until the occurrence of significant change: appearance, […], conversion of a polymorph form (detected using powder X-ray diffraction spectroscopy and expressed as the amount of crystalline or amorphous phase different from the starting polymorph).

[2] = Open dish study: constant influence of humidity on binary mixtures of losartan potassium form X; type: physicochemical; details: 5 days, 25° C., 60% relative humidity
Procedure: Storage conditions: Open dish study—constant influence of humidity Testing mixtures are put into open petri dishes and stored in a thermostatically controlled chamber at a temperature of 25° C. (±2° C.) and 60% (±5%) relative humidity
as §1

[3] = vial, 4 days, exposed to 60% humidity 18 hours, closed, 25° C., 60% relative humidity
[4] = vial, 9 days, exposed to 60% humidity 18 hours, closed, 25° C., 60% relative humidity

In the case of `CCCCc1nc(Cl)c(CO)n1Cc1ccc(-c2ccccc2-c2nnn[n-]2)cc1.[K+]` [Not stabilized API, potassium salt of losartan], the Appearance ([1]; Initial state) is reported as “white powder”, the “Form conversion (amount of crystalline or amorphous phase different from the starting polymorph, XRPD)” value ([1]; Initial state) is reported as 0% and the Loss on drying ([1]; Initial state) is reported as 0.08%. For the same compound, the Appearance [1, 3] was “white slightly”, the “Form conversion (amount of crystalline or amorphous phase different from the starting polymorph, XRPD)” value [1, 3] was 5% and the Loss on drying [1, 3] was 0.52%. For the same compound, the Appearance [1, 4] was “white slightly”, the “Form conversion (amount of crystalline or amorphous phase different from the starting polymorph, XRPD)” value [1, 4] was 100% and the Appearance [2] was “white slightly”. The “Form conversion (amount of crystalline or amorphous phase different from the starting polymorph, XRPD)” value [2] was 10% and the Loss on drying [2] was 0.93%.
